These substances were tested on human IGF-IR mRNA (assay: Antisense inhibition of human IGF-IR mRNA levels by quantitative RT-PCR (Table 1)). Settings: quantitative RT-PCR; averages from 3 experiments.
Format: cell-based
Set-up: %INHIB (human IGF-IR mRNA levels): concentration or dose not given beside the values
Description: Treatment of A549 cell cultures with oligonucleotides targeting IGF-IR is as described in WO 2004/072284.
Quantitation of IGF-IR mRNA levels was accomplished by RT-PCR using the ABI PRISM (trademark) 7600, 7700, or 7900 Sequence Detection System (PE-Applied Biosystems, Foster City, Calif.) according to manufacturer's instructions. This is a closed-tube, non-gel-based, fluorescence detection system which allows high-throughput quantitation of PCR products in real-time. As opposed to standard PCR in which amplification products are quantitated after the PCR is completed, products in real-time quantitative PCR are quantitated as they accumulate. This is accomplished by including in the PCR reaction an oligonucleotide probe that anneals specifically between the forward and reverse PCR primers, and contains two fluorescent dyes. A reporter dye (e.g., FAM or JOE, obtained from either PE-Applied Biosystems, Foster City, Calif., Operon Technologies Inc., Alameda, Calif. or Integrated DNA Technologies Inc., Coralville, Iowa) is attached to the 5′-end of the probe and a quencher dye (e.g., TAMRA, obtained from either PE-Applied Biosystems, Foster City, Calif., Operon Technologies Inc., Alameda, Calif. or Integrated DNA Technologies Inc., Coralville, Iowa) is attached to the 3′-end of the probe. When the probe and dyes are intact, reporter dye emission is quenched by the proximity of the 3′ quencher dye. During amplification, annealing of the probe to the target sequence creates a substrate that can be cleaved by the 5′-exonuclease activity of Taq polymerase. […] With each cycle, additional reporter dye molecules are cleaved from their respective probes, and the fluorescence intensity is monitored at regular intervals by laser optics built into the ABI PRISM (trademark) Sequence Detection System. In each assay, a series of parallel reactions containing serial dilutions of mRNA from untreated control samples generates a standard curve that is used to quantitate the percent inhibition after antisense oligonucleotide treatment of test samples.
PCR reagents were obtained from Invitrogen Corporation, (Carlsbad, Calif.). RT-PCR reactions were carried out by adding 20 μL PCR cocktail (2.5×PCR buffer minus MgCl2, 6.6 mM MgCl2, 375 μM each of dATP, dCTP, […] and dGTP, 375 nM each of forward primer and reverse primer, 125 nM of probe, 4 Units RNAse inhibitor, 1.25 Units PLATINUM (registered trademark) Taq, 5 Units MuLV reverse transcriptase, and 2.5×ROX dye) to 96-well plates containing 30 μL total RNA solution (20-200 ng). The RT reaction was carried out by incubation for 30 minutes at 48° C. Following a 10 minute incubation at 95° C. to activate the PLATINUM (trademark) Taq, 40 cycles of a two-step PCR protocol were carried out: 95° C. for 15 seconds (denaturation) followed by 60° C. for 1.5 minutes (annealing/extension).
Gene target quantities obtained by RT-PCR are normalized using either the expression level of GAPDH, a gene whose expression is constant, or by quantifying total RNA using RiboGreen (trademark) (Molecular Probes, Inc. Eugene, Oreg.). GAPDH expression is quantified by RT-PCR, by being run simultaneously with the target, multiplexing, or separately. Total RNA is quantified using RiboGreen (trademark) RNA quantification reagent (Molecular Probes, Inc. Eugene, Oreg.). Methods of RNA quantification by RiboGreen (trademark) are taught in Jones et al., 1998.
Probes and primers to human IGF-IR were designed to hybridize to the IGF-IR nucleotide sequence, using published sequence information (GenBank accession number NM000875 (SEQ ID NO:76) or M69229 (SEQ ID NO:77) which is the 5′ untranslated of the IGF-IR gene sequence (see FIG. 6).
In accordance with the present invention, a series of antisense compounds were designed to target different regions of the human IGF-IR mRNA or the 5′ untranslated region, using published sequences set forth in NM000875 (SEQ ID NO:77) and M69229 (SEQ ID NO:76). […]

| Substance | %INHIB (human IGF-IR mRNA levels) [%] |
| --- | --- |
| 175328 (antisense GGTAAACAAGAGCCCCAGCC; listed as DNA, chemistry not fully specified) [compound 175328] | 64 |
| 323695 (antisense CCTTTTATTTGGGATGAAAT; listed as DNA, chemistry not fully specified) [compound 323695] | 50 |
| 323696 (antisense CCAGACTTCATTCCTTTTAT; listed as DNA, chemistry not fully specified) [compound 323696] | 44 |
| 323697 (antisense TGATAGTCGTTGCGGATGTC; listed as DNA, chemistry not fully specified) [compound 323697] | 73 |
| 323698 (antisense GCTGCTGATAGTCGTTGCGG; listed as DNA, chemistry not fully specified) [compound 323698] | 72 |
| 323699 (antisense CTTCAGCTGCTGATAGTCGT; listed as DNA, chemistry not fully specified) [compound 323699] | 74 |
| 323700 (antisense CCCTCGATCACCGTGCAGTT; listed as DNA, chemistry not fully specified) [compound 323700] | 56 |
| 323701 (antisense TTGGAGATGAGCAGGATGTG; listed as DNA, chemistry not fully specified) [compound 323701] | 65 |
| 323702 (antisense CGGCCTTGGAGATGAGCAGG; listed as DNA, chemistry not fully specified) [compound 323702] | 66 |
| 323703 (antisense GTCCTCGGCCTTGGAGATGA; listed as DNA, chemistry not fully specified) [compound 323703] | 71 |
| 323704 (antisense CGGTAGTCCTCGGCCTTGGA; listed as DNA, chemistry not fully specified) [compound 323704] | 71 |
| 323705 (antisense TTGTAGAAGAGTTTCCAGCC; listed as DNA, chemistry not fully specified) [compound 323705] | 52 |
| 323706 (antisense TGGTCATCTCGAAGATGACC; listed as DNA, chemistry not fully specified) [compound 323706] | 5 |
| 323707 (antisense GAGATTGGTCATCTCGAAGA; listed as DNA, chemistry not fully specified) [compound 323707] | 20 |
| 323708 (antisense TCCTTGAGATTGGTCATCTC; listed as DNA, chemistry not fully specified) [compound 323708] | 41 |
| 323709 (antisense CAATATCCTTGAGATTGGTC; listed as DNA, chemistry not fully specified) [compound 323709] | 29 |
| 323710 (antisense AAGCCCAATATCCTTGAGAT; listed as DNA, chemistry not fully specified) [compound 323710] | 43 |
| 323711 (antisense CCCCCGAGTAATGTTCCTCA; listed as DNA, chemistry not fully specified) [compound 323711] | 41 |
| 323712 (antisense TCTCAATCCTGATGGCCCCC; listed as DNA, chemistry not fully specified) [compound 323712] | 56 |

| Substance | %INHIB (human IGF-IR mRNA levels) [%] |
| --- | --- |
| 323713 (antisense GTTATTGGACACCGCATCCA; listed as DNA, chemistry not fully specified) [compound 323713] | 31 |
| 323714 (antisense ATGTAGTTATTGGACACCGC; listed as DNA, chemistry not fully specified) [compound 323714] | 64 |
| 323715 (antisense CCACAATGTAGTTATTGGAC; listed as DNA, chemistry not fully specified) [compound 323715] | 65 |
| 323716 (antisense CACAGGTCCCCACATTCCTT; listed as DNA, chemistry not fully specified) [compound 323716] | 42 |
| 323717 (antisense CTGGACACAGGTCCCCACAT; listed as DNA, chemistry not fully specified) [compound 323717] | 45 |
| 323718 (antisense ATGGTGGTCTTCTCACACAT; listed as DNA, chemistry not fully specified) [compound 323718] | 69 |
| 323719 (antisense TGTTGATGGTGGTCTTCTCA; listed as DNA, chemistry not fully specified) [compound 323719] | 66 |
| 323720 (antisense CTCATTGTTGATGGTGGTCT; listed as DNA, chemistry not fully specified) [compound 323720] | 81 |
| 323721 (antisense GTTGTACTCATTGTTGATGG; listed as DNA, chemistry not fully specified) [compound 323721] | 73 |
| 323722 (antisense CGGTAGTTGTACTCATTGTT; listed as DNA, chemistry not fully specified) [compound 323722] | 71 |
| 323723 (antisense AGCAGCGGTAGTTGTACTCA; listed as DNA, chemistry not fully specified) [compound 323723] | 70 |
| 323724 (antisense GGTCCAGCAGCGGTAGTTGT; listed as DNA, chemistry not fully specified) [compound 323724] | 60 |
| 323725 (antisense TTTGTGGTCCAGCAGCGGTA; listed as DNA, chemistry not fully specified) [compound 323725] | 67 |
| 323726 (antisense TGGGCACATTTTCTGGCAGC; listed as DNA, chemistry not fully specified) [compound 323726] | 57 |
| 323727 (antisense GGAGTAATTCCCTTCTAGCT; listed as DNA, chemistry not fully specified) [compound 323727] | 21 |
| 323728 (antisense TCCCACAGTTGCTGCAAGTT; listed as DNA, chemistry not fully specified) [compound 323728] | 73 |
| 323729 (antisense ATGTTCCAGCTGTTGGAGCC; listed as DNA, chemistry not fully specified) [compound 323729] | 72 |
| 323730 (antisense CCACCATGTTCCAGCTGTTG; listed as DNA, chemistry not fully specified) [compound 323730] | 78 |
| 323731 (antisense GTCCAGGGCTTCAGCCCATG; listed as DNA, chemistry not fully specified) [compound 323731] | 74 |

Source: patent US9084770B2, “Modulation of insulin like growth factor I receptor expression in cancer” (Antisense Therapeutics, Ltd., priority 2008, dated 2015)
